Measurements taken from patent publication US8207206B2, “(S,R)-3-phenyl-4,5 dihydro-5-isoxazole acetic acid-nitric oxide and use thereof as anti-cancer and antiviral agent” (OncoNOx APS, priority 2007, dated 2012).

What was measured:
[1] = test system: MAP kinases (p38 MAPK, ERK, JNK) in C6 cells; assay: Cell-based ELISA for activation of MAP kinases; design: species or system rat; details: C6, 25 μg/ml, time course
Experimental: (§1) Activation of MAP kinases (p38 MAPK, extracellular signal-regulated kinase—ERK, and Jun-N-terminal kinase—JNK) or nuclear factor-κB (NF-κB) was determined by means of a slightly modified method of cell-based ELISA by Versteeg et al. (Versteeg 2000). Since MAP kinases are activated by phosphorylation, and phosphorylation of the inhibitory subunit IκB is a necessary step for NF-κB activation, we used antibodies specific for phosphorylated forms of MAP kinases (p-p38, p-ERK and p-JNK) and IκB (p-IκB). The cells were grown overnight in 96-well flat-bottom plates in a culture medium containing 0.5% FCS and then treated with the test compound diluted in conventional culture medium. At the end of treatment period the cells were fixed in 4% parformaldehyde, endogenous peroxydase was quenched with 1% H2O2 in PBS containing 0.1% Triton X-100 (PBST), and unspecific binding of antibodies was blocked with a PBST solution containing 10% FCS. Primary mouse monoclonal antibodies specific for rat/mouse p-ERK, p-p38, p-JNK, p-IκB (1:200; all from Santa Cruz Biotechnology, Santa Cruz, Calif.) were applied in PBST supplemented with 2% bovine serum albumine (PBSTB), followed by secondary peroxidase-conjugated goat anti-mouse IgG (1:2500 in PBSTB; USB corporation, Cleveland, Ohio) for anti-p-ERK, anti-p-JNK and anti-p-IκB, or anti-mouse IgM (1:4000; USB corporation) for detection of anti-p-p38. Incubation with antibodies was carried out at 37° C. for 1 h. After 15 min incubation with peroxydase substrate TMB and subsequent addition of 0.1 M HCl, the absorbance at 450 nm was measured in an automated microplate reader. To enable comparison between treatment and control, the resulting absorbances were corrected for the cell number determined by crystal violet staining, as described in the original protocol. The results are presented as relative expression in comparison with the control value, which was arbitrarily set to 1.

B16 cells [2] = assay: Cell cycle analysis and apoptosis detection (PI staining, flow cytometry); type: cell-based, mouse; details: B16, 25 μg/ml, 24 h
Experimental: (§2) As a marker of necrotic cell death, the release of intracellular enzyme LDH, which mediates the conversion 2,4-dinitrophenylhydrazine into visible hydrazone precipitate in the presence of pyruvate, was measured. The cells were seeded in flat-bottom 96-well plates as indicated above and the assay was performed after 24 h incubation, as previously described (Decker et al). The percentage of dead cells was determined using the following formula: [(E−C)/(T−C)]×100, wherein E is the experimental absorbance of treated cultures measured at 492 nm, C is the absorbance of supernatants of control untreated cells, and T is the absorbance corresponding to the maximal (100%) LDH release of Triton-lysed cells. Cell cycle analysis and apoptosis detection were carried out exactly as described in the literature (Mijatovic CMLS 2005). Acidic vesicular organelles, which characterise autophagy, are stained by vital dye acridin orange. The intensity of red fluorescence is proportional to the acidity and volume of the organelles, while the cytoplasm and nucleolus emits bright green and dim red (Kanzawa 2004). […] Green (510-530 nm) and red (>650 nm) fluorescence emission from 10^4 cells illuminated with blue (488 nm) excitation light was measured with a FACS Calibur and analyzed using CellQuest software.

L929 cells [3] = assay: as above; type: cell-based, mouse; details: L929, 25 μg/ml, 24 h
Experimental: as §2

B16 cells [4] = assay: ROS measurement by DHR fluorescence (flow cytometry); type: cell-based, mouse; details: B16, 25 μg/ml, 24 h
Experimental: (§3) The cells grown in the 6-well plate were stained with 1 μM dihydrorhodamine 123 (DHR) 20 min before the treatment with the test compound. At the end of the cultivation period the cells were detached, washed and resuspended in PBS. Analysis of ROS release was performed with a FACSCalibur and analyzed using CellQuest Pro software (Kaludjerovic 2005).

L929 cells [5] = assay: as above; type: cell-based, mouse; details: L929, 25 μg/ml, 24 h
Experimental: as §3

C6 cells = assay: LDH release assay (cell death); type: cell-based, rat; details: C6, dose-dependent (24 h) and time-dependent (25 μg/ml), significant after 18 h
Experimental: as §2

B16 cells [6] = assay: Autophagy detection by acridin orange staining (flow cytometry); type: cell-based, mouse; details: B16, 25 μg/ml, 24 h
Experimental: as §2

[7] = test system: MAP kinases (p38 MAPK, ERK, JNK) in B16 cells; assay: Cell-based ELISA for activation of MAP kinases; design: species or system mouse; details: B16, 25 μg/ml, time course
Experimental: as §1

[8] = test system: MAP kinases (p38 MAPK, ERK, JNK) in L929 cells; assay: Cell-based ELISA for activation of MAP kinases; design: species or system mouse; details: L929, 25 μg/ml, time course
Experimental: as §1

B16 cells [9] = assay: CFSE staining, tumor cell proliferation rate (flow cytometry); type: cell-based, mouse; details: B16, GIT27-NO 25 μg/ml, after 48 h; control 2.00%
Experimental: (§4) The cells were seeded in flat-bottom 96-well plates (10^4 cells/well) in a final volume of 200 μl of culture medium, incubated overnight, then treated with different concentrations of the test compound. After 24 h incubation, cell viability was assessed using 3-4,5-dimethylthiazol-2-yl)-2,5-diphenyltetrazolium bromide (MTT) test, based on the mitochondrial-dependent reduction of MTT to formazan, or by crystal violet (CV) staining of adherent cells, as previously described (Mijatovic et al CMLS 2004). The results are presented as % of control values obtained in untreated cultures. The rate of cell proliferation was also determined using flow cytometric analysis of cells labeled with CFSE (Kang 2005). The cells were detached, added with 1.5 μM CFSE and allowed to stand for 15 min at 37° C., then washed twice and seeded in 6-well plates at 2×10^5. The cells were treated with the compound for 24 and 48 h, trypsinized and washed twice. Finally, the cells were resuspended in PBS and analyzed by flow cytometry. Green fluorescence emission from cells illuminated with excitation light of 488 nm was measured with a FACS Calibur (BD, Heidelberg, Germany) and analyzed using the CellQuest software.

L929 cells [10] = assay: as above; type: cell-based, mouse; details: L929, GIT27-NO 25 μg/ml, after 48 h; control 7.26%
Experimental: as §4

N#Cc1c(COC(=O)CC2CC(c3ccccc3)=NO2)no[n+]1[O-] (racemic) [GIT27-NO, (S,R)-3-phenyl-4,5 dihydro-5-isoxazole acetic acid-nitric oxide]
activation of ERK1/2 [1]: permanent activation
activation of JNK [1]: permanent activation
activity of p38 [1]: not affected
percentage of cells in subG compartment (hypodiploid cells) (B16 cells [2]): < 10%
proportion of hypodiploid cells (subG compartment) (L929 cells [3]): significantly increased proportion of hypodiploid cells
intracellular production of ROS (DHR fluorescence) (B16 cells [4]): markedly increased
intracellular production of ROS (DHR fluorescence) (L929 cells [5]): markedly increased
LDH release (C6 cells): induced LDH release
acidic autophagic vesicles (red fluorescence of acridin orange) (B16 cells [6]): significantly increased the intensity of bright red fluorescence
activation of ERK1/2 [7]: did not affect the activation
activation of JNK [7]: significant time-dependent activation
activation of p38 [7]: only slight activation
activation of ERK1/2 [8]: marked and sustained activation
activation of p38 [8]: significant transient activation
expression (activation) of JNK [8]: without affecting the expression
CFSE R1 = parent population (B16 cells [9]): 6.90%
CFSE R1 = parent population (L929 cells [10]): 13.23%
